In patent US20160106110A1, “COMPOSITIONS AND METHODS FOR ENHANCING GERMINATION” (CORNELL UNIVERSITY, priority 2013, published 2016):

Experiments:
TrigoCor spores [1] = assay: Terbium chloride (DPA release) spore germination assay at 37° C., 10 mM germinant (Example 1); type: cell-based, Bacillus subtilis var. amyloliquefaciens; details: for Percent germination of TrigoCor spores: 10 mM germinant, mean ± standard deviation; for percent germination of spores as compared to control (in words): summary of Table 1, 10 mM
Procedure: Bacillus starter cultures were grown in nutrient broth plus yeast extract (Crane et al. 2013), then were transferred 1:1000 to a modified Schaeffer's sporulation medium (Nicholson and Setlow 1990) containing per liter 2.012 g KCl, 0.492 g MgSO4. 7 H20, no NaOH, and 0.0197 g MnCl2.4H20, and grown for 72 h. All cultures were grown in 50 mL aliquots in beveled flasks at 37° C. with 225 RPM shaking. Liquid cultures were spun down at 4° C. for 10 min at 10,000 RCF, washed 10 times in cold deionized water, and resuspended in 5 mL cold deionized water. To remove vegetative cells, cultures were treated with lysozyme (final concentration 50 μg/mL) for 10 min on ice, followed by six rounds of 15 sec sonication on ice, then were washed twice with cold deionized water. Spore preparations were stored in deionized water at 4° C., and prior to use were washed once with cold deionzied water. Unless otherwise noted, spores were resuspended in 25 mM HEPES (Sigma-Aldrich, St. Louis, Mo.) pH 7.41 to produce a final concentration of 10^8 CFUs/mL. Purified spore cultures contained over 98% phase-bright spores and minimal cell debris, as verified through phase contrast microscopy.
Terbium chloride (1 mM) (Sigma-Aldrich, St. Louis, Mo.) and all germinant solutions were prepared in 25 mM HEPES pH 7.41 and added as noted in individual experiments. 90 μL TrigoCor spores were mixed with 10 μL of each germinant (100 mM, final concentration 10 mM) and incubated in a 96-well plate (Thermo Scientific, Waltham, Mass.) at 37° C. for 1, 10, 30, 60, or 120 min. Samples were prepared so that all incubations finished simultaneously and were analyzed together. For each germinant tested, two spore-germinant mixtures were loaded per incubation time. Germinants tested were D-glucose, D-fructose, KBr, KCl, L-alanine, L-asparagine, L-proline, L-valine, and the germinant combination AGFK (equimolar concentrations of L-asparagine, D-glucose, D-fructose, and KCl), or HEPES as a control. Following addition of 100 μL terbium chloride to all samples, fluorescence was measured as explained below.
At each plate reader measurement time, two 90 μL samples of spores autoclaved for 60 min mixed with 10 μL HEPES, as well as a sample containing a mixture of all germinants and HEPES, were added as additional samples in the plate and mixed with 100 μL terbium chloride. A final sample of pure deionized water was included in the plate as well, and these samples were measured alongside all other samples in the plate. Fluorescence was measured at 545 nm emission and 273 nm excitation according to Yi and Setlow (2010) using a Synergy 4 plate reader (Biotek Instruments Inc., Winooski, Vt.). […] Percent spore germination for each sample at each time point was calculated by dividing its relative fluorescence units (RFUs) by the corresponding average RFUs of the autoclaved cells, which have released all their dipicolinic acid (DPA) due to lysis (Yang and Ponce 2009) and provided in Table 1. Spore germination results were confirmed using phase contrast microscopy (data not shown).

TrigoCor spores [2] = assay: Terbium chloride spore germination assay at 37° C., 10 or 100 mM germinant (Example 2); type: cell-based, Bacillus subtilis var. amyloliquefaciens; details: for Percent germination of TrigoCor spores: mean ± standard deviation; for percent germination of spores as compared to control (in words): summary of Table 2, 10 or 100 mM
Procedure: The following protocol was performed as per Example 1, with the following modification:
Terbium chloride (1 mM) (Sigma-Aldrich, St. Louis, Mo.) and all germinant solutions were prepared in 25 mM HEPES pH 7.41 and added as noted in individual experiments. 450 μL TrigoCor spores were mixed with 50 μL of each germinant (100 mM and 1 M, final concentrations 10 mM and 100 mM) and incubated at 37° C. Two samples were prepared for each germinant and germinants tested were D-glucose, L-alanine, AGFK, and an equimolar solution of glucose and alanine, or HEPES as a control. After 10, 30, 60, and 120 minutes of incubation, 100 μL was transferred from each tube to a 96-well plate. For an initial measurement of spore germination, two 100 μL samples of spores not mixed with germinants and kept at 4° C. were analyzed alongside the samples which had incubated for 10 minutes. Immediately following each sample time, 100 μL terbium chloride was added to all samples and fluorescence was measured as explained previously.
Percent spore germination for each sample at each time point was calculated by dividing its relative fluorescence units (RFUs) by the corresponding average RFUs of the autoclaved cells, which have released all their dipicolinic acid (DPA) due to lysis (Yang and Ponce 2009) and provided in Table 2. Spore germination results were confirmed using phase contrast microscopy (data not shown).

[3] = 10 mM germinant, incubation time 10 min
[4] = 10 mM germinant, incubation time 30 min
[5] = 10 mM germinant, incubation time 60 min
[6] = 10 mM germinant, incubation time 120 min
[7] = 100 mM germinant, incubation time 10 min
[8] = 100 mM germinant, incubation time 30 min
[9] = 100 mM germinant, incubation time 60 min
[10] = 100 mM germinant, incubation time 120 min

| Structure (SMILES) | Percent germination of TrigoCor spores (TrigoCor spores [1]; incubation time 1 min) [%] | Percent germination of TrigoCor spores (TrigoCor spores [1]; incubation time 10 min) [%] | Percent germination of TrigoCor spores (TrigoCor spores [1]; incubation time 30 min) [%] | Percent germination of TrigoCor spores (TrigoCor spores [1]; incubation time 60 min) [%] | Percent germination of TrigoCor spores (TrigoCor spores [1]; incubation time 120 min) [%] | percent germination of spores as compared to control (in words) (TrigoCor spores [1]) | Percent germination of TrigoCor spores (TrigoCor spores [2]; [3]) [%] | Percent germination of TrigoCor spores (TrigoCor spores [2]; [4]) [%] | Percent germination of TrigoCor spores (TrigoCor spores [2]; [5]) [%] | Percent germination of TrigoCor spores (TrigoCor spores [2]; [6]) [%] | Percent germination of TrigoCor spores (TrigoCor spores [2]; [7]) [%] | Percent germination of TrigoCor spores (TrigoCor spores [2]; [8]) [%] | Percent germination of TrigoCor spores (TrigoCor spores [2]; [9]) [%] | Percent germination of TrigoCor spores (TrigoCor spores [2]; [10]) [%] | percent germination of spores as compared to control (in words) (TrigoCor spores [2]) |
| --- | --- | --- | --- | --- | --- | --- | --- | --- | --- | --- | --- | --- | --- | --- | --- |
| [Br-].[K+] [Potassium bromide] | 1 ± 0 | 1 ± 0 | 1 ± 0 | 1 ± 0 | 1 ± 0 |  |  |  |  |  |  |  |  |  |  |
| O=C(CO)[C@@H](O)[C@H](O)[C@H](O)CO [D-fructose] | 1 ± 0 | 1 ± 0 | 1 ± 0 | 1 ± 1 | 1 ± 1 |  |  |  |  |  |  |  |  |  |  |
| NC(=O)C[C@H](N)C(=O)O [L-asparagine] | 1 ± 0 | 1 ± 0 | 1 ± 0 | 1 ± 0 | 1 ± 0 |  |  |  |  |  |  |  |  |  |  |
| [Cl-].[K+] [Potassium chloride] | 1 ± 0 | 1 ± 0 | 1 ± 0 | 1 ± 0 | 1 ± 0 |  |  |  |  |  |  |  |  |  |  |
| O=C[C@H](O)[C@@H](O)[C@H](O)[C@H](O)CO [D-glucose] | 1 ± 0 | 1 ± 0 | 5 ± 0 | 10 ± 1 | 25 ± 1 | increases | 1 ± 0 | 5 ± 0 | 13 ± 1 | 28 ± 2 | 1 ± 0 | 7 ± 1 | 18 ± 2 | 34 ± 1 | increases |
| O=C(O)[C@@H]1CCCN1 [L-proline] | 1 ± 0 | 1 ± 0 | 1 ± 0 | 1 ± 0 | 1 ± 0 |  |  |  |  |  |  |  |  |  |  |
| CC(C)[C@H](N)C(=O)O [L-valine] | 1 ± 0 | 1 ± 0 | 1 ± 0 | 1 ± 0 | 1 ± 0 |  |  |  |  |  |  |  |  |  |  |
| C[C@H](N)C(=O)O [L-alanine] | 1 ± 0 | 4 ± 0 | 20 ± 1 | 23 ± 1 | 21 ± 0 | increases | 1 ± 0 | 13 ± 1 | 41 ± 1 | 43 ± 1 | 1 ± 0 | 47 ± 1 | 86 ± 3 | 90 ± 3 | increases |
